Key:
[1] = tested on: CFTR−/− mice; assay: Fatty acid levels (GC/MS) in pancreas and lung cells of CFTR−/− mice fed n-3 fatty acids; format: in vivo, mouse; details: CFTR-/- mice, 40 mg/day for one week (fish oil: dose equivalent to 40 mg DHA, 60 mg EPA, 15 mg LNA); mean ± S.D.
Description: Mouse pancreatic acinar and lung cell suspensions were prepared from wild type (n=3) and CFTR−/− mice (n=3) by enzymatic and mechanical dissociation. In addition, brain, kidney, heart, spleen, and blood were sonicated in 0.3M sucrose buffer. Membrane lipids were extracted from cell and organ preparations with 20 volumes of chloroform-methanol 2:1 (v/v), transmethylated with 0.5 mL of 0.1 N methanolic-NaOH/BF3 reagent, and the resulting fatty acid methyl esters analyzed by gas chromatography/mass spectrometry (GC/MS). In a different set of experiments, lipids were fractionated by aminopropyl column chromatography into triglycerides, cholesterol esters, and phosphoglycerides and the fatty acid composition of each lipid class determined by a combination of enzymatic hydrolysis, transmethylation, and GC/MS.
Cystic fibrosis (UNC strain) and wild type mice (12-20 grams body weight) were fed with a complete liquid enteral formulation (Peptamen™, Nestle Clinical Nutrition, Inc.) supplemented with different quantities of the DHA-containing formulation Neuromins (Nature's Way Products Inc., Springville, Utah). DHA content in the Neuromins formulation was 100 mg per 500 mg of formulation. Mice were fed once a day at about 11 a.m., seven days a week with 20 ml of Peptamen™ supplemented with the various amounts of either Neuramins, free DHA (Sigma Chemical Co., MO) or DHA-ethyl ester (Nu-Check-Prep, Inc. MN) ranging from 0.5 mg/day of DHA to 40 mg/day of DHA.
Lung and acinar cells were isolated from a CF mouse fed with DHA formula (mouse-1, 40 mg/day DHA). The pellets (0.5 mL for pancreas cell homogenate and 0.6 mL for lung cell homogenate) were extracted with 3 mL of chloroform-methanol 2:1 (v/v). The resulting emulsion was vortexed, centrifuged at 800 g for 3 min., and the lower phase aspirated. The residual upper phase was partitioned again with 3 mL of chloroform-methanol 2:1 (v/v), the lower phase aspirated and both lower phases combined. Fractions were evaporated to dryness, processed for fatty acid methyl esters (FAME) and were analyzed by GC-MS analysis. Aliquots of 10 μL of 17:0 methyl ester solution in hexane [1 μg/μL] were added to the samples after methylation.
(§1) Lung and acinar cells were isolated from a CF and a wild-type (WT) mouse fed with DHA formula. The pellets (0.5 mL for pancreas cell homogenate and 0.6 mL for lung cell homogenate) were extracted with 3 mL of chloroform-methanol 2:1 (v/v). The resulting emulsion was vortexed, centrifuged at 800 g for 3 min., and the lower phase aspirated. The residual upper phase was partitioned again with 3 mL of chloroform-methanol 2:1 (v/v), the lower phase aspirated and both lower phases combined. Fractions were evaporated to dryness, processed for FAME and analyzed by GC-MS. Aliquots of 20 μL of 17:0 in chloroform-methanol 2:1 (v/v) were added to the samples before methylation.
as §1, with “from” for “from a”, “mice” for “and a wild-type (WT) mouse”, “different doses of DHA, i.e., 0.5 mg/day, 2.0 mg/day, 10 mg/day or 40 mg/day DHA.” for “DHA formula.”, “pellets” for “pellets (0.5 mL for pancreas cell homogenate and 0.6 mL for lung cell homogenate)”, “30” for “20”
CFTR−/− mice were prepared as described in Example 1. Both CFTR−/− mice and wild type mice were euthanized with carbon dioxide, and cell suspensions from pancreas and lung isolated.

[2] = tested on: CFTR−/− mice; assay: as above; format: in vivo, mouse; details: CFTR-/- mice, 40 mg/day for one week (fish oil: dose equivalent to 40 mg DHA, 60 mg EPA, 15 mg LNA); mean ± S.D.; remark: listed apart in the source

Q: With CC/C=C\C/C=C\C/C=C\C/C=C\C/C=C\CCCC(=O)O [EPA, Eicosapentaenoic acid, reference compound] as the compound, how does the “DHA level in pancreas” value [1] read?
A: 2.2 ± 0.4 nmol/mg

Q: And the “AA level in pancreas” value [2]?
A: 5.1 ± 0.3 nmol/mg

From US20040127567A1, “Novel methods for treating disorders in which docosahexaenoic acid (DHA) levels are affected” (Beth Israel Deaconess Medical Center, Inc., priority 1998, published 2004)
